# Like-named read-outs stand apart in the source and are kept apart here.
# Conditions: the molecule shown is the open-chain precursor, rcm bond, 38-membered ring, DCE, 70.0 °C
substance,measurement,setting,value
"(S)-tert-Butyl 2-((S)-2-((2S,4S)-4-(4-((4-((S)-2-((S)-2-((2S,4S)-4-allyl-1-((S)-2-((S)-2-((tert-butoxycarbonyl)(methyl)amino)propanamido)-3,3-dimethylbutanoyl)pyrrolidine-2-carboxamido)-3-(naphthalen-2-yl)propanamido)-3-(cyclopropanesulfonamido)-3-oxopropyl)phenoxy)methyl)-1H-1,2,3-triazol-1-yl)-1-((S)-2-((S)-2-((tert-butoxycarbonyl)(methyl)amino)propanamido)-3,3-dimethylbutanoyl)pyrrolidine-2-carboxamido)-3-(naphthalen-2-yl)propanamido)-3-(4-(allyloxy)phenyl)propanoate","ring closure, yield after HPLC","Hoveyda-Grubbs II (10 mol%), 3.5 mM",75%
"(S)-tert-Butyl 2-((S)-2-((2S,4S)-4-allyl-1-((S)-2-((S)-2-((tert-butoxycarbonyl)(methyl)amino)propanamido)-3,3-dimethylbutanoyl)pyrrolidine-2-carboxamido)-3-(naphthalen-2-yl)propanamido)-3-(4-((1-((3S,5S)-5-(((S)-1-(((S)-2-(4-(allyloxy)phenyl)-1-(5-oxo-4,5-dihydro-1,3,4-oxadiazol-2-yl)ethyl)amino)-3-(naphthalen-2-yl)-1-oxopropan-2-yl)carbamoyl)-1-((S)-2-((S)-2-((tert-butoxycarbonyl)(methyl)amino)propanamido)-3,3-dimethylbutanoyl)pyrrolidin-3-yl)-1H-1,2,3-triazol-4-yl)methoxy)phenyl)propanoate","ring closure, yield after HPLC","Hoveyda-Grubbs II (10 mol%), 5.2 mM",52%
"(S)-2-((S)-2-((2S,4S)-4-(4-((4-((S)-2-((S)-2-((2S,4S)-4-Allyl-1-((S)-2-4S)-2-((tert-butoxycarbonyl)(methyl)amino)propanamido)-3,3-dimethylbutanoyl)pyrrolidine-2-carboxamido)-3-(naphthalen-2-yl)propanamido)-3-(methylsulfonamido)-3-oxopropyl)phenoxy)methyl)-1H-1,2,3-triazol-1-yl)-1-((S)-2-((S)-2-((tert-butoxycarbonyl)(methyl)amino)propanamido)-3,3-dimethylbutanoyl)pyrrolidine-2-carboxamido)-3-(naphthalen-2-yl)propanamido)-3-(4-(allyloxy)phenyl)propanoic acid","ring closure, yield after HPLC","Grubbs II (2 portions), 2.9 mM",49%
